The values below come from patent US20190225650A1, “PEPTIDOMIMETIC MACROCYCLES AND USE THEREOF IN REGULATING HIF1ALPHA” (AILERON THERAPEUTICS, INC., priority 2013, published 2019).

The term IC50 denotes the concentration needed to halve the response being measured. The term EC50 denotes the midpoint of the concentration-response curve.

Assay [1] concerns the target T1, flag-tagged HIF1α (AA 786-826) / His6-tagged p300 (AA 323-423) complex (Homo sapiens, UniProt Q09472).
T1 construct: His6-tagged p300 (AA 323-423); made in house; host or cells: E. coli (pETDuet vector)
As to the kind of experiment: HIF1α p300 displacement assay (TR FRET, +CHAPS). The class given is binding. The settings on record: read-out: IC50 (nM) (HIF1α_p300 Displacement + CHAPS). The essentials: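 The co-expressed flag-HIF1α (786-826)/His6-p300 (323-423) complex, purified from E. coli with 0.1 mM ZnSO4, was used at 300 nM final with competitor peptides for 1 h at room temperature. Buffer was 150 mM NaCl, 20 mM HEPES pH 7.4, 7.5 mM CHAPS and 1 mM DTT. Anti-Flag-K (0.5 μM) and anti-His-D2 (4 nM) were then added for 2 h, and IC50s were fitted from the TR-FRET ratio.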

Assay [2] has as its system HRE-bla ME-180 cells. As to the kind of experiment: Reporter gene assay (HRE-bla ME-180 HIF reporter, GeneBLAzer). It counts as cell-based, human. The settings on record: for EC50: 24 hour normoxia. The essentials:
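A FRET β-lactamase readout of HIF transcription was used. After compound treatment in 0.3% DMSO/media under normoxic conditions, 20 μl of 6× LiveBLAzer-FRET B/G (CCF4-AM) substrate was added. Plates sat 3 hr at room temperature in the dark and were read at 409 Ex/460Em and 409Ex/530Em on a Synergy 2. Inhibition was compared against DMSO vehicle controls, with chetomin as positive control.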
On the technique in general: Reporter assays use an easily measured gene product as a stand-in for the process of interest.

Assay [3] deals with HRE-bla ME-180 cells. The assay can be described thus: Cell proliferation assay (viability, MTT, 1% FBS). The class given is cell-based, human. In outline: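 ME-180 cells (2×10^4/well) in Opti-MEM with 1% FBS were pretreated 16 h under normoxia (21% O2), vehicle 0.5% DMSO final. Incubation then continued under normoxia or hypoxia (1% O2); viable cells quantified by MTT-type CellTiter 96 assay.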

SMILES strings stand for the structures. Bridge positions count the residues as written; N and C are the ends. Square brackets hold non-standard residues; d marks the D form. Peptide text beside a SMILES is read from it. R8 = C=CCCCCCC[C@@](C)(N)C(=O)O; S5 = C=CCCC[C@](C)(N)C(=O)O; Nle = CCCC[C@H](N)C(=O)O

T1 sequence (Q09472 323-423, one chain of several): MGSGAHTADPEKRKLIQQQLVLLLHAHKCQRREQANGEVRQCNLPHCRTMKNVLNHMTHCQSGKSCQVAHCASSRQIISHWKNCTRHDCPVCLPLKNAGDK

For the molecule `CCCC[C@H](NC(=O)[C@]1(C)CCCC=CCCC[C@](C)(NC(=O)[C@H](CCCC)NC(=O)[C@H](CC(C)C)NC(=O)[C@@H](NC(=O)[C@H](CCC(=O)O)NC(=O)[C@H](CCC(=O)O)NC(=O)[C@H](CC(=O)O)NC(=O)[C@@H](NC(=O)[C@H](CC(N)=O)NC(=O)[C@@H](NC(=O)[C@H](CCC(N)=O)NC(=O)[C@H](CC(=O)O)NC(=O)[C@H](CC(C)C)NC(=O)[C@H](C)NC(=O)[C@H](CCCNC(=N)N)NC(=O)[C@H](CC(C)C)NC(=O)[C@H](CC(C)C)NC(=O)[C@H](CCC(=O)O)NC(=O)[C@H](CCC(=O)O)NC(=O)CNC(=O)[C@H](CCC(N)=O)NC(=O)[C@H](CC(C)C)NC(=O)[C@H](CC(C)C)NC(C)=O)C(C)C)[C@@H](C)CC)C(C)C)C(=O)N[C@@H](CC(C)C)C(=O)N[C@@H](C(C)C)C(=O)N[C@@H]([C@@H](C)CC)C(=O)N1)C(N)=O` [SP-335] (Ac-LLQGEELLRALDQVNIDEEVL[Nle][S5]LVI[S5][Nle]-NH2; staple 23-27), in assay [1], the 50% inhibitory concentration (IC50) lay within 400 to 700 nM. Further, in the assay on HRE-bla ME-180 cells [2], the “18 h Avg % max inhibition at top conc (HIF Rptr-24 hrs normoxia) (μM)” value was “+ (<10: +)” and the concentration for a half-maximal effect (EC50) is over 30 µM. Besides, the “Viability 1% FBS AVG (MTT V3-24 hr Normoxia) (μM)” value in the assay on HRE-bla ME-180 cells [3] is on record as “++++ (≥30: ++++)”.
On to `CCCC[C@H](NC(=O)[C@H](CCC(=O)O)NC(=O)[C@]1(C)CCCC=CCCCCCC[C@@](C)(NC(=O)[C@H](CCC(=O)O)NC(=O)[C@H](CC(=O)O)NC(=O)[C@@H](NC(=O)[C@H](CC(N)=O)NC(=O)[C@@H](NC(=O)[C@H](CCC(N)=O)NC(=O)[C@H](CC(=O)O)NC(=O)[C@H](CC(C)C)NC(=O)[C@H](C)NC(=O)[C@H](CCCNC(=N)N)NC(=O)[C@H](CC(C)C)NC(=O)[C@H](CC(C)C)NC(=O)[C@H](CCC(=O)O)NC(=O)[C@H](CCC(=O)O)NC(=O)CNC(=O)[C@H](CCC(N)=O)NC(=O)[C@H](CC(C)C)NC(=O)[C@H](CC(C)C)NC(C)=O)C(C)C)[C@@H](C)CC)C(=O)N[C@@H](C(C)C)C(=O)N[C@@H](CC(C)C)C(=O)N[C@@H](CCCC)C(=O)N[C@@H](CO)C(=O)N[C@@H](CC(C)C)C(=O)N[C@@H](C(C)C)C(=O)N1)C(N)=O` [SP-336] (Ac-LLQGEELLRALDQVNIDE[R8]VL[Nle]SLV[S5]E[Nle]-NH2; staple 19-26), for which the IC50 in assay [1] is over 700 nM. In the assay with HRE-bla ME-180 cells [2], the “18 h Avg % max inhibition at top conc (HIF Rptr-24 hrs normoxia) (μM)” value was “+ (<10: +)” and the concentration for a half-maximal effect (EC50) was over 30 µM. For the same molecule, the “Viability 1% FBS AVG (MTT V3-24 hr Normoxia) (μM)” value with HRE-bla ME-180 cells [3] was “++++ (≥30: ++++)”.
For `CCCC[C@H](NC(=O)[C@]1(C)CCCC=CCCCCCC[C@@](C)(NC(=O)[C@H](CCC(=O)O)NC(=O)[C@H](CCC(=O)O)NC(=O)[C@H](CC(=O)O)NC(=O)[C@@H](NC(=O)[C@H](CC(N)=O)NC(=O)[C@@H](NC(=O)[C@H](CCC(N)=O)NC(=O)[C@H](CC(=O)O)NC(=O)[C@H](CC(C)C)NC(=O)[C@H](C)NC(=O)[C@H](CCCNC(=N)N)NC(=O)[C@H](CC(C)C)NC(=O)[C@H](CC(C)C)NC(=O)[C@H](CCC(=O)O)NC(=O)[C@H](CCC(=O)O)NC(=O)CNC(=O)[C@H](CCC(N)=O)NC(=O)[C@H](CC(C)C)NC(=O)[C@H](CC(C)C)NC(C)=O)C(C)C)[C@@H](C)CC)C(=O)N[C@@H](CC(C)C)C(=O)N[C@@H](CCCC)C(=O)N[C@@H](CO)C(=O)N[C@@H](CC(C)C)C(=O)N[C@@H](C(C)C)C(=O)N[C@@H]([C@@H](C)CC)C(=O)N1)C(N)=O` [SP-337] (Ac-LLQGEELLRALDQVNIDEE[R8]L[Nle]SLVI[S5][Nle]-NH2; staple 20-27), in that order: 400 to 700 nM, “+ (<10: +)”, over 30 µM and “++++ (≥30: ++++)”.
